Laboratory results reported in patent US20080000489A1, “Method and preparation for binding aldehydes in saliva” (BIOHIT OYJ, priority 2000, published 2008).

Experiment: Salivary acetaldehyde in smokers sucking blinded L-cysteine tablets during cigarette smoking, gas chromatography
Format: in vivo, human
Settings: for mean salivary acetaldehyde concentration immediately after smoking: five smokers, placebo 191.2±48.5 μM
Method: Five smokers (age 29±2.8) participated in the study, in which […] were smoked (wash-out periods between). During every cigarette smoking (in 5 min time) volunteers sucked blinded tablets containing placebo, 1.25 mg, 2.5 mg, 5 mg, 10 mg or 20 mg L-cysteine. Acetaldehyde was analysed from salivary samples gas chromatographically at 0, 5, 10, 20 min from the beginning of smoking.
The mean salivary acetaldehyde concentrations immediately after smoking were 191.2±48.5 μM, 0 μM, 0 μM, 0 μM with placebo, 5 mg, 10 mg and 20 mg L-cysteine tablets, respectively.

SMILES: N[C@@H](CS)C(=O)O [L-cysteine]
- amount of acetaldehyde compared to placebo (1.25 mg L-cysteine tablet): about to third compared to placebo
- mean salivary acetaldehyde concentration immediately after smoking (5 mg L-cysteine tablet sucked during 5 min smoking): 0 µM
- carcinogenic acetaldehyde in the saliva during smoking (5 mg of L-cysteine administered by melting-tablet): totally inactivates
- mean salivary acetaldehyde concentration immediately after smoking (10 mg L-cysteine tablet sucked during 5 min smoking): 0 µM
- mean salivary acetaldehyde concentration immediately after smoking (20 mg L-cysteine tablet sucked during 5 min smoking): 0 µM
- tobacco-originated acetaldehyde from the saliva (L-cysteine tablets 5 mg, 10 and 20 mg, FIG. 4): totally eradicated
